According to PubChem BioAssay AID248 (DTP/NCI, 2004):
Toxic doses and inconclusive results are not listed. No stated cut-off is given here; in the data, active means T/C of 150% or more; inactive means T/C below 125%.

Tested on: L1210 leukemia ip in BDF1 mice, survival T/C
Experiment: NCI In Vivo Anticancer Drug Screen. Data for tumor model L1210 Leukemia (intraperitoneal) in B6D2F1 (BDF1) mice
Settings: endpoint: mean survival time, higher = longer survival
Summary of the method: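 Antitumor effect is assessed in tumor-bearing animals. Survival in the compound arm is compared with a vehicle-dosed control arm and expressed as their quotient.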

[1] = dose: 100.0 mg/kg/injection, schedule: Q04DX003 (ip), vehicle: Klucel (hydroxypropylcellulose) (HPC)
[2] = dose: 200.0 mg/kg/injection, schedule: Q04DX003 (ip), vehicle: Klucel (hydroxypropylcellulose) (HPC)
[3] = dose: 100.0 mg/kg/injection, schedule: Q01DX001 (ip), vehicle: saline
[4] = dose: 100.0 mg/kg/injection, schedule: Q01DX009 (ip), vehicle: saline
[5] = dose: 200.0 mg/kg/injection, schedule: Q01DX001 (ip), vehicle: saline
[6] = dose: 200.0 mg/kg/injection, schedule: Q01DX009 (ip), vehicle: saline
[7] = dose: 400.0 mg/kg/injection, schedule: Q01DX001 (ip), vehicle: saline
[8] = dose: 400.0 mg/kg/injection, schedule: Q01DX009 (ip), vehicle: saline
[9] = dose: 100.0 mg/kg/injection, schedule: Q04DX003 (ip), vehicle: saline
[10] = dose: 6.25 mg/kg/injection, schedule: Q01DX009 (ip), vehicle: Klucel (hydroxypropylcellulose) (HPC)
[11] = dose: 12.5 mg/kg/injection, schedule: Q01DX009 (ip), vehicle: Klucel (hydroxypropylcellulose) (HPC)
[12] = dose: 200.0 mg/kg/injection, schedule: Q04DX003 (ip), vehicle: saline
[13] = dose: 400.0 mg/kg/injection, schedule: Q04DX003 (ip), vehicle: saline

Measured: T/C

NC(N)=N/N=C/c1cccc(Cl)c1
inactive: dose: 3.75 mg/kg/injection, schedule: Q01DX Z (ip), vehicle: saline 92 % of control | dose: 7.5 mg/kg/injection, schedule: Q01DX Z (ip), vehicle: saline 94 % of control | dose: 15.0 mg/kg/injection, schedule: Q01DX Z (ip), vehicle: saline 94 % of control | dose: 15.0 mg/kg/injection, schedule: Q01DX Z (oral), vehicle: saline 98 % of control | dose: 30.0 mg/kg/injection, schedule: Q01DX Z (ip), vehicle: saline 100 % of control | dose: 30.0 mg/kg/injection, schedule: Q01DX Z (oral), vehicle: saline 98 % of control | dose: 60.0 mg/kg/injection, schedule: Q01DX Z (oral), vehicle: saline 98 % of control | dose: 120.0 mg/kg/injection, schedule: Q01DX Z (oral), vehicle: saline 102 % of control

c1ccc2c(c1)OB(C1CCCC1)O2
inactive: [1] 95 % of control | [2] 93 % of control | dose: 400.0 mg/kg/injection, schedule: Q04DX003 (ip), vehicle: Klucel (hydroxypropylcellulose) (HPC) 100 % of control

O=S(=O)(Cc1ccccc1)C1CCCC1
inactive: [3] 104 % of control | [4] 96 % of control | dose: 100.0 mg/kg/injection, schedule: Q04DX003 (ip), vehicle: acetone 103 % of control | [5] 104 % of control | [6] 110 % of control | dose: 200.0 mg/kg/injection, schedule: Q04DX003 (ip), vehicle: acetone 97 % of control | [7] 93 % of control | [8] 113 % of control | dose: 400.0 mg/kg/injection, schedule: Q04DX003 (ip), vehicle: acetone 102 % of control

COc1ccc(OC)c(CCN)c1
inactive: dose: 25.0 mg/kg/injection, schedule: Q01DX009 (ip), vehicle: saline with Tween-80 98 % of control | dose: 50.0 mg/kg/injection, schedule: Q01DX009 (ip), vehicle: saline with Tween-80 105 % of control | dose: 100.0 mg/kg/injection, schedule: Q01DX009 (ip), vehicle: saline with Tween-80 104 % of control | [9] 107 % of control

O=C1C=C(O/C=C/C(C(F)(F)F)C(F)(F)F)C(=O)c2ccccc21
inactive: dose: 6.25 mg/kg/injection, schedule: Q01DX001 (ip), vehicle: Klucel (hydroxypropylcellulose) (HPC) 100 % of control | [10] 91 % of control | dose: 12.5 mg/kg/injection, schedule: Q01DX001 (ip), vehicle: Klucel (hydroxypropylcellulose) (HPC) 101 % of control | [11] 95 % of control | dose: 25.0 mg/kg/injection, schedule: Q01DX001 (ip), vehicle: Klucel (hydroxypropylcellulose) (HPC) 103 % of control | dose: 50.0 mg/kg/injection, schedule: Q01DX001 (ip), vehicle: Klucel (hydroxypropylcellulose) (HPC) 101 % of control | dose: 75.0 mg/kg/injection, schedule: Q01DX001 (ip), vehicle: Klucel (hydroxypropylcellulose) (HPC) 96 % of control

C[n+]1cccc(O)c1
inactive: dose: 67.0 mg/kg/injection, schedule: Q04DX003 (ip), vehicle: saline 105 % of control | [4] 90 % of control | [9] 107 % of control | dose: 150.0 mg/kg/injection, schedule: Q04DX003 (ip), vehicle: saline 105 % of control | [6] 93 % of control | [12] 124 % of control | [8] 92 % of control | [13] 97 % of control

Cc1ccc(NC(=O)NCC(=O)O)cc1
inactive: dose: 100.0 mg/kg/injection, schedule: Q01DX001 (ip), vehicle: carboxymethylcellulose (CMC) 101 % of control | dose: 200.0 mg/kg/injection, schedule: Q01DX001 (ip), vehicle: carboxymethylcellulose (CMC) 97 % of control | dose: 400.0 mg/kg/injection, schedule: Q01DX001 (ip), vehicle: carboxymethylcellulose (CMC) 109 % of control

C=C(Br)CNC(=O)CCCl
inactive: dose: 6.25 mg/kg/injection, schedule: Q01DX009 (ip), vehicle: other 109 % of control | dose: 12.5 mg/kg/injection, schedule: Q01DX009 (ip), vehicle: other 98 % of control | dose: 25.0 mg/kg/injection, schedule: Q01DX009 (ip), vehicle: other 102 % of control

NC(CSCc1cc(=O)[nH]c(=O)[nH]1)C(=O)O (stereo unspecified)
inactive: [9] 97 % of control | [12] 97 % of control | [13] 95 % of control

COc1cccc(-n2cccc2)c1
inactive: dose: 100.0 mg/kg/injection, schedule: Q01DX001 (ip), vehicle: other 103 % of control | dose: 200.0 mg/kg/injection, schedule: Q01DX001 (ip), vehicle: other 105 % of control | dose: 400.0 mg/kg/injection, schedule: Q01DX001 (ip), vehicle: other 108 % of control

CC1(C#N)c2ccccc2C=CN1C(=O)c1ccccc1 (stereo unspecified)
inactive: dose: 100.0 mg/kg/injection, schedule: Q01DX009 (ip), vehicle: Klucel (hydroxypropylcellulose) (HPC) 97 % of control | dose: 200.0 mg/kg/injection, schedule: Q01DX009 (ip), vehicle: Klucel (hydroxypropylcellulose) (HPC) 95 % of control | dose: 400.0 mg/kg/injection, schedule: Q01DX009 (ip), vehicle: Klucel (hydroxypropylcellulose) (HPC) 92 % of control

O=C(CC(O)(C(F)(F)F)C(F)(F)F)c1cccc(S(=O)(=O)F)c1
inactive: dose: 100.0 mg/kg/injection, schedule: Q04DX003 (ip), vehicle: saline with Tween-80 95 % of control | dose: 200.0 mg/kg/injection, schedule: Q04DX003 (ip), vehicle: saline with Tween-80 100 % of control

CCOC(=O)/C(C)=N/Nc1cc(Cl)ccc1O
inactive: [3] 95 % of control | [5] 94 % of control | [7] 106 % of control

C=CCCCCCCCCC(=O)Nc1ccc(Cl)cc1C(=O)c1ccccc1
inactive: dose: 100.0 mg/kg/injection, schedule: Q04DX002 (ip), vehicle: Klucel (hydroxypropylcellulose) (HPC) 95 % of control | dose: 200.0 mg/kg/injection, schedule: Q04DX002 (ip), vehicle: Klucel (hydroxypropylcellulose) (HPC) 92 % of control | dose: 400.0 mg/kg/injection, schedule: Q04DX002 (ip), vehicle: Klucel (hydroxypropylcellulose) (HPC) 89 % of control

Cc1cc(C)[n+](C)c(C)c1
inactive: dose: 12.5 mg/kg/injection, schedule: Q04DX003 (ip), vehicle: saline 96 % of control | dose: 25.0 mg/kg/injection, schedule: Q04DX003 (ip), vehicle: saline 93 % of control | dose: 50.0 mg/kg/injection, schedule: Q04DX003 (ip), vehicle: saline 101 % of control | [9] 93 % of control

O=C(Nc1ccc(F)c(Cl)c1)OCC1CCCO1 (stereo unspecified)
inactive: [10] 92 % of control | [11] 89 % of control | [1] 94 % of control | [2] 89 % of control

ON=C1CCCCCCC1
inactive: dose: 12.5 mg/kg/injection, schedule: Q04DX002 (ip), vehicle: Klucel (hydroxypropylcellulose) (HPC) 105 % of control | dose: 25.0 mg/kg/injection, schedule: Q04DX002 (ip), vehicle: Klucel (hydroxypropylcellulose) (HPC) 96 % of control | dose: 50.0 mg/kg/injection, schedule: Q04DX002 (ip), vehicle: Klucel (hydroxypropylcellulose) (HPC) 101 % of control

COC1OC2COc3ccccc3OC2C2C1N2C(N)=S (stereo unspecified)
inactive: dose: 100.0 mg/kg/injection, schedule: Q04DX002 (ip), vehicle: saline 96 % of control | dose: 200.0 mg/kg/injection, schedule: Q04DX002 (ip), vehicle: saline 100 % of control | dose: 400.0 mg/kg/injection, schedule: Q04DX002 (ip), vehicle: saline 100 % of control
